The nature of the series: Human HepG2 cell viability assay in 384 well format. Type of series: toxicity, cell-based. Set-up: dose 125 nL, time 70.5 hour; concentration not given beside the values. Conditions: HepG2 cells, read-out: Inhibition.

Turning to `Cc1ccc(C(=O)NC2CC2)c(-n2cnnn2)c1C`, the cytotoxicity at 70.5 h is -17.7%.

Take `COC(=O)c1ccc(C2SCC(=O)Nc3c2cnn3C2CCCC2)cc1` (configuration not stated): the cytotoxicity at 70.5 h is -12.4%.

Turning to `COc1cccc2c1ccn2CC(=O)Nc1nc[nH]n1`, the cytotoxicity at 70.5 h is -11.8%.

Take `Cc1cc(O)cc(=O)n1CCCC(=O)Nc1n[nH]c2cccc(F)c12`: the cytotoxicity at 70.5 h is -16.5%.

In the case of `CC(C)c1sc(Br)nc1C(=O)NCc1ccncc1`, the cytotoxicity at 70.5 h was 23%.

Take `Cc1ncc(CNC(C)(C)CO)c2cc(C(=O)c3ccc(Br)cc3)oc12`: the cytotoxicity at 70.5 h is -14.3%.

With `CC(C)OCCCNC(=O)C1CC(=O)N(c2n[nH]c3cccc(F)c23)C1` (configuration not stated), the cytotoxicity at 70.5 h is -23.7%.

Consider `O=C(CCc1nnc2ccccn2c1=O)NCc1ccco1`, for which the cytotoxicity at 70.5 h amounted to 24.6%.

As for `CC(C)Cn1cnc2ccc(NC(=O)CCCn3cccn3)cc2c1=O`, the cytotoxicity at 70.5 h is -2.92%.

With `O=C1CSC(c2ccc(O)cc2)c2c(n(C3CCOCC3)[nH]c2=O)N1` (configuration not stated), the cytotoxicity at 70.5 h was -23.1%.

For the molecule `COC(=O)CC(c1cccs1)c1oc(C)cc(=O)c1O` (configuration not stated), the cytotoxicity at 70.5 h was -7.87%.

Turning to `COc1ccc2c(ccn2CC(=O)Nc2n[nH]c(C(C)C)n2)c1`, the cytotoxicity at 70.5 h was -12.1%.

Turning to `Cn1cnc2cc(NC(=O)c3n[nH]c4c3CCC4)ccc21`, the cytotoxicity at 70.5 h is -3.46%.

As to `O=C(NCCc1ccccn1)c1n[nH]c2c1CCC2`, the cytotoxicity at 70.5 h is -5.6%.

Turning to `COCCn1cnc2ccc(NC(=O)c3ccccn3)cc2c1=O`, the cytotoxicity at 70.5 h was -9.53%.

For `O=C(NC1CCCc2c1[nH]c1ccc(F)cc21)c1n[nH]c2c1CCC2` (configuration not stated), the cytotoxicity at 70.5 h stood at 26.4%.

In the case of `CC(C)c1sc(Cl)nc1C(=O)N1CCN(c2ccccn2)CC1`, the cytotoxicity at 70.5 h came to 29.7%.

Regarding `COC(=O)CNC(=O)c1nc(Cl)sc1C(C)C`, the cytotoxicity at 70.5 h amounted to 24.5%.

`CN(C)CCCn1cnc2cc(NC(=O)c3n[nH]c4c3CCC4)ccc21`: the cytotoxicity at 70.5 h is -4.15%.

With `COc1ccc(N2CCN(C(=O)c3nc(Cl)sc3C(C)C)CC2)cc1`, the cytotoxicity at 70.5 h was -18.9%.

`COc1cn(CC(=O)N2CCN(c3ccc(Cl)cc3)CC2)c(C)cc1=O`: the cytotoxicity at 70.5 h was found to be 23.5%.

Turning to `COC(=O)CC(c1cccc(OC(F)F)c1)c1oc(C)cc(=O)c1O` (configuration not stated), the cytotoxicity at 70.5 h stood at 7.18%.

On to `COc1ccc2nnc(CCCC(=O)NCCc3ccncc3)n2n1`, for which the cytotoxicity at 70.5 h was -5%.

Take `Cc1ccc(CN2CC[C@@H]3CN(S(C)(=O)=O)CCO[C@@H]3C2)o1`: the cytotoxicity at 70.5 h turned out to be 7.49%.

On to `Cc1cnc(N2C[C@@H]3[C@@H](C(=O)NC(C)C)CCS(=O)(=O)[C@@H]3C2)nc1`, for which the cytotoxicity at 70.5 h amounted to 18%.

`O=C(NC1CCC1)[C@H]1C[C@H]2NCCO[C@@H]2C1`: the cytotoxicity at 70.5 h turned out to be 4.07%.

As to `O=C(NC1CCCCC1)N1C[C@@H]2OCCN(C(=O)c3ccco3)[C@@H]2C1`, the cytotoxicity at 70.5 h amounted to 0.645%.

With `COc1cc(N2CC[C@@H](OC)[C@@H]2Cc2ccccc2)ncn1`, the cytotoxicity at 70.5 h was -1.02%.

As to `O=C(N1CCOCC1)N1C[C@@H]2OCCN(C(=O)c3ccco3)[C@@H]2C1`, the cytotoxicity at 70.5 h is -1.55%.

For `CC1CC2(CCN(C(=O)c3csnn3)CC2)c2ccccc21` (configuration not stated), the cytotoxicity at 70.5 h was determined as 0.655%.

Regarding `CC(C)Nc1nc2c(c(NC3CC3)n1)CCN(C(=O)C1CCOC1)CC2` (configuration not stated), the cytotoxicity at 70.5 h stood at 1.81%.

Consider `CNC(=O)C1CC2(CCN(C(=O)c3csnn3)CC2)c2ccccc21` (configuration not stated), for which the cytotoxicity at 70.5 h was found to be 0.474%.

For the molecule `Cc1cc(CN2C[C@@H]3CN(Cc4ccsc4)CCO[C@@H]3C2)no1`, the cytotoxicity at 70.5 h came to 7.7%.

As to `COCCN(C)C(=O)c1nc2c(s1)CCCN2C`, the cytotoxicity at 70.5 h is 11.8%.

As for `CC(C)N1CCCc2sc(C(=O)NC3CC3)nc21`, the cytotoxicity at 70.5 h was determined as 8.47%.

Turning to `COCCN(C)C(=O)c1nc2c(s1)CCCN2c1ncccn1`, the cytotoxicity at 70.5 h was -3.25%.

Turning to `CC(C)NC(=O)[C@H]1CCS(=O)(=O)[C@@H]2CN(c3ncc(F)cn3)C[C@H]12`, the cytotoxicity at 70.5 h is -2.87%.

In the case of `O=C(c1cnccn1)N1CC[C@H]2[C@H]1CCN2S(=O)(=O)C1CC1`, the cytotoxicity at 70.5 h is -4.25%.

For the molecule `COCCO[C@H]1CCN(c2cc(OC)ncn2)[C@H]1Cc1ccncc1`, the cytotoxicity at 70.5 h was -1.44%.

As for `O=C(c1ccnnc1)N1CC[C@H]2[C@H]1CCN2S(=O)(=O)C1CC1`, the cytotoxicity at 70.5 h is -0.791%.

Regarding `Cn1nccc1-c1nc2c(cc1C(=O)O)CCN(CC1CC1)CC2`, the cytotoxicity at 70.5 h amounted to 12.7%.

As for `CCC1=N[C@@]2(CC[C@@H]3CN(CC4CC4)C[C@@H]32)C(=O)N1`, the cytotoxicity at 70.5 h amounted to 7.37%.

For the molecule `CN(C)C(=O)N1CCCC2(CCN(Cc3ccc(Cl)c(F)c3)C2)C1` (configuration not stated), the cytotoxicity at 70.5 h is -6.53%.

As to `O=C(C1CCSCC1)N1CCC2(CC1)COC(COCC1CC1)C2` (configuration not stated), the cytotoxicity at 70.5 h is -11.3%.

Regarding `CCc1ccc(CN2CCC3(CCCN(C(=O)N(C)C)C3)C2)o1` (configuration not stated), the cytotoxicity at 70.5 h was -10.4%.

For the molecule `CN(C)C(=O)CNC(=O)c1nc2c(s1)CCCN2Cc1ccccc1`, the cytotoxicity at 70.5 h is -2.15%.

Consider `CC(=O)N1CCO[C@@H]2CN(S(=O)(=O)c3ccccc3F)C[C@@H]2C1`, for which the cytotoxicity at 70.5 h was -10.2%.

On to `Cc1ncc(CNCC(C)O)c2cc(C(=O)c3ccc(Br)cc3)oc12` (configuration not stated), for which the cytotoxicity at 70.5 h was -16.1%.

With `Cn1nnc2c1CCN(Cc1ccco1)C2COCc1ccccc1` (configuration not stated), the cytotoxicity at 70.5 h turned out to be 1.81%.

As for `CCN(C)c1ncnc2c1CCN(C(=O)NCc1cccnc1)CC2`, the cytotoxicity at 70.5 h is 0.595%.

As to `CN(C)C(=O)NCc1nnn2c1CN(CC1CCOCC1)CCC2`, the cytotoxicity at 70.5 h was 0.222%.

As to `Cn1cc(CN2CCc3c(nnn3C)C2COCc2ccccc2)cn1` (configuration not stated), the cytotoxicity at 70.5 h came out at 32.3%.

Consider `COCCO[C@H]1CCN(c2cc(OC)ncn2)[C@H]1Cc1cccnc1`, for which the cytotoxicity at 70.5 h came to 7.05%.

As to `COc1cc(N2C[C@H]3CN(C(=O)c4cccnc4)C[C@H]3C2)ncn1`, the cytotoxicity at 70.5 h was -2.8%.

With `Cc1cc(CN2C[C@@H]3CN(C(=O)c4ccco4)CCO[C@@H]3C2)no1`, the cytotoxicity at 70.5 h was -5.36%.

For `Cc1nc2c(c(NC(C)C)n1)CCN(C(=O)c1cc[nH]n1)CC2`, the cytotoxicity at 70.5 h is -8.54%.

In the case of `c1ccc(CN2CCOC3(COCCN(c4ncccn4)C3)C2)nc1` (configuration not stated), the cytotoxicity at 70.5 h is -12.3%.

Turning to `CCC1=N[C@@]2(CC[C@@H]3CN(Cc4ccccc4C)C[C@@H]32)C(=O)N1`, the cytotoxicity at 70.5 h was -4.43%.

As for `CN(C)C(=O)NCc1ncn2c1CN(Cc1ccco1)CCC2`, the cytotoxicity at 70.5 h is -6.46%.

With `Cc1cnnn1Cc1nnn2c1CN(Cc1ccccn1)CCC2`, the cytotoxicity at 70.5 h was -7.24%.

Take `c1ccc(CN2CCCn3nnc(Cn4cccc4)c3C2)nc1`: the cytotoxicity at 70.5 h was -7.02%.

On to `CN1CCO[C@@H]2CN(S(=O)(=O)c3ccccc3)CC[C@@H]2C1`, for which the cytotoxicity at 70.5 h is -5%.

In the case of `c1cnc(N2CCOCC3(CN(Cc4ccsc4)CCO3)C2)nc1` (configuration not stated), the cytotoxicity at 70.5 h is -3.74%.

In the case of `Cc1cnnn1Cc1nnn2c1CN(Cc1cccs1)CCC2`, the cytotoxicity at 70.5 h was -1.92%.

Turning to `CN1CCO[C@@H]2CN(S(=O)(=O)c3ccc(F)cc3)CC[C@@H]2C1`, the cytotoxicity at 70.5 h is -1.86%.

As for `CC1=N[C@@]2(CC[C@@H]3CN(CC(C)C)C[C@@H]32)C(=O)N1C`, the cytotoxicity at 70.5 h is -5.39%.

As for `O=C(O)CN1CCC(F)(F)C2(CCN(c3ccccn3)C2)C1` (configuration not stated), the cytotoxicity at 70.5 h amounted to 2.21%.

(Values after ChEMBL document CHEMBL3507680, “University of Dundee, Gates Library screen for HepG2 cell viability”.)
